Results reported in US10633419B2, “Immunomodulators” (BRISTOL-MYERS SQUIBB COMPANY, priority 2014, dated 2020).
Starred links: 1 amine or outer side, 2 acyl side, 3 side chain; linkers in the order of their positions; H or OH if unused. Positions of bridges follow the written chain, without caps; N, C: chain ends. Non-standard residues stand in square brackets, D forms with d. Residues, ends and D or L forms follow the SMILES beside them. ξ: configuration not given here. *: point of attachment. X12 = O=C(O)CCCCCCCCCCCCCCCCCCC(=O)N[C@@H](CCC(=O)NCCCOCCOCCOCCCN*)C(=O)O; X18 = O=C(O)CCCCCCCCCCCCCCC(=O)N[C@@H](CC(=O)NCCCOCCOCCOCCCN*)C(=O)O; X11 = O=C(O)CCCCCCCCCCCCC(=O)N[C@@H](CCC(=O)NCCCOCCOCCOCCCN*)C(=O)O; Trp(1-CH2COOH) = N[C@@H](Cc1cn(CC(=O)O)c2ccccc12)C(=O)O; X9 = O=C(O)CCCCCCCCCCCCCCCCC(=O)N[C@@H](CCN*)C(=O)O; Phe(3,4,5-F3) = N[C@@H](Cc1cc(F)c(F)c(F)c1)C(=O)O; d(cisHyp) = O=C(O)[C@H]1C[C@@H](O)CN1; βAsp = O=C(O)[C@H](CC(=O)[*:2])N[*:1]; Gly(octyl) = CCCCCCCC[C@H](N)C(=O)O; X19 = O=C(C1C[C@H](O)CN1[*:1])[*:2]; ξPro(4R-OH) = O=C(O)C1C[C@@H](O)CN1; PEG6 = NCCOCCOCCOCCOCCOCCOCCC(=O)O; Palmitoyl = CCCCCCCCCCCCCCCC(=O)*; Hyp = O=C(O)[C@@H]1C[C@@H](O)CN1; NMeF = CN[C@@H](Cc1ccccc1)C(=O)O; NMeNle = CCCC[C@H](NC)C(=O)O; Pip = O=C(O)[C@@H]1CCCCN1; NMeA = CN[C@@H](C)C(=O)O; Pra = C#CC[C@H](N)C(=O)O; Aun = NCCCCCCCCCCC(=O)O; Dab = NCC[C@H](N)C(=O)O; Dap = NC[C@H](N)C(=O)O; Ava = NCCCCC(=O)O; ξC = NC(CS)C(=O)O

Molecular target: T1, PD-L1 (Homo sapiens, UniProt Q9NZQ7)
T1 construct: hPDL1(19-239)-TVMV-His; made in house; host or cells: HEK293T
Test: PD-1/PD-L1 Homogenous Time-Resolved Fluorescence (HTRF) binding assay (PD-1-Ig/PD-L1-His)
Conditions: inhibition of PD-1-Ig binding to PD-L1-TVMV-His; value given as number; read-out: HTRF IC50
Outline: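 Inhibitors pre-incubated 15 min with PD-L1-His (10 nM final), then PD-1-Ig (20 nM final) added for 15 min in dPBS/0.1% BSA/0.05% Tween-20. Eu-cryptate anti-Ig (1 nM) and APC anti-His (20 nM) added, 30 min equilibration, 665/620 nm HTRF ratio read.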

T1 sequence (Q9NZQ7 with tags, fused parts or gaps): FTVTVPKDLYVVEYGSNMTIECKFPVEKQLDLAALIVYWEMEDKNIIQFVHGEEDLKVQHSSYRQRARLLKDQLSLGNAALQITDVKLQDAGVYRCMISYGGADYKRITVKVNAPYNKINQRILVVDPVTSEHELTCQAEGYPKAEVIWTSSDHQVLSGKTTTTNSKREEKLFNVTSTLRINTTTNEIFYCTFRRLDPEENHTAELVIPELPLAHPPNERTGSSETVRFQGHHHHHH

SMILES | IC50
CCCC[C@H]1C(=O)N(C)[C@@H](CCCC)C(=O)N[C@@H](CC(C)C)C(=O)N[C@H](C(=O)NCC(=O)N[C@@H](Cc2cn(CC[C@H](NC(=O)CCCCCCCCCCCCCCCCC(=O)O)C(=O)O)nn2)C(=O)O)CSCC(=O)N[C@@H](Cc2ccc(O)cc2)C(=O)N2CCCC[C@H]2C(=O)N[C@@H](CC(N)=O)C(=O)N2CCC[C@H]2C(=O)N[C@@H](CN)C(=O)N[C@@H](CC(C)C)C(=O)N2C[C@H](O)C[C@H]2C(=O)N[C@@H](Cc2c[nH]c3ccccc23)C(=O)N[C@@H](CCN)C(=O)N[C@@H](Cc2cn(CC(=O)O)c3ccccc23)C(=O)N1C [Example 13132] | 3.3 nM
CCCCCCCC[C@H](NC(=O)CCCCCCCCCCNC(=O)[C@@H]1CSCC(=O)N[C@@H](Cc2ccc(O)cc2)C(=O)N(C)[C@@H](C)C(=O)N[C@@H](CC(N)=O)C(=O)N2CCC[C@H]2C(=O)N[C@@H](CN)C(=O)N[C@@H](CC(C)C)C(=O)N2C[C@H](O)C[C@H]2C(=O)N[C@@H](Cc2c[nH]c3ccccc23)C(=O)N[C@@H](CCN)C(=O)N[C@@H](Cc2cn(CC(=O)O)c3ccccc23)C(=O)N(C)[C@@H](CCCC)C(=O)N(C)[C@@H](CCCC)C(=O)N[C@@H](CC(C)C)C(=O)N1)C(=O)O [Example 11102] ({CH2CO}-Y[NMeA]NP[Dap]L[Hyp]W[Dab][Trp(1-CH2COOH)][NMeNle][NMeNle]LC[Aun][Gly(octyl)]-OH; thioether N-14) | 13 nM
CCCCCCCCCCCCCCCC(=O)N[C@@H](CCn1cc(C[C@H](NC(=O)CNC(=O)[C@@H]2CSCC(=O)N[C@@H](Cc3ccc(O)cc3)C(=O)N(C)[C@@H](C)C(=O)N[C@@H](CC(=O)O)C(=O)N3CCC[C@H]3C(=O)N[C@@H](Cc3c[nH]cn3)C(=O)N[C@@H](CCCCN)C(=O)N3C[C@H](O)C[C@H]3C(=O)N[C@@H](Cc3c[nH]c4ccccc34)C(=O)N[C@@H](CCCCN)C(=O)N[C@@H](Cc3cn(CC(=O)O)c4ccccc34)C(=O)N(C)[C@@H](CCCC)C(=O)N(C)[C@@H](CCCC)C(=O)N[C@@H](CCC(=O)O)C(=O)N2)C(N)=O)nn1)C(=O)O [Example 14072] | 8.5 nM

Same assay, conditions: inhibition of PD-1-Ig binding to PD-L1-TVMV-His; value given as range class; read-out: HTRF IC50

SMILES | IC50
C#CC[C@H](NC(=O)CNC(=O)[C@@H]1CSCC(=O)N[C@@H](Cc2ccc(O)cc2)C(=O)N2CCCC[C@H]2C(=O)N[C@@H](CC(N)=O)C(=O)N2CCC[C@H]2C(=O)N[C@@H](CN)C(=O)N[C@@H](CC(C)C)C(=O)N2C[C@H](O)C[C@H]2C(=O)N[C@@H](Cc2c[nH]c3ccccc23)C(=O)N[C@@H](CCN)C(=O)N[C@@H](Cc2cn(CC(=O)O)c3ccccc23)C(=O)N(C)[C@@H](CCCC)C(=O)N(C)[C@@H](CCCC)C(=O)N[C@@H](CCC(=O)O)C(=O)N1)C(=O)O [INT130AJ] ({CH2CO}-Y[Pip]NP[Dap]L[Hyp]W[Dab][Trp(1-CH2COOH)][NMeNle][NMeNle]ECG[Pra]-OH; thioether N-14) | 0.3 to 9.9 nM
CCCC[C@H]1C(=O)N(C)[C@@H](CCCC)C(=O)N[C@@H](CC(C)C)C(=O)N[C@H](C(=O)NCC(=O)N[C@@H](CC(=O)O)C(=O)N[C@@H](CCC(=O)NCCCOCCOCCOCCCNC(=O)CC[C@H](NC(=O)CCCCCCCCCCCCCCCCCCC(=O)O)C(=O)O)C(=O)O)CSCC(=O)N[C@@H](Cc2ccc(O)cc2)C(=O)N(C)[C@@H](C)C(=O)N[C@@H](CC(N)=O)C(=O)N2CCC[C@H]2C(=O)N[C@@H](CN)C(=O)N[C@@H](CC(C)C)C(=O)N2C[C@H](O)CC2C(=O)N[C@@H](Cc2c[nH]c3ccccc23)C(=O)N[C@@H](CCN)C(=O)N[C@@H](Cc2cn(CC(=O)O)c3ccccc23)C(=O)N1C (stereo partly drawn) [Example 11249] ({CH2CO}-Y[NMeA]NP[Dap]L[ξPro(4R-OH)]W[Dab][Trp(1-CH2COOH)][NMeNle][NMeNle]LCGDE(X12)-OH; thioether N-14) | 0.3 to 9.9 nM
CCCC[C@H]1C(=O)N(C)[C@@H](CCCC)C(=O)N[C@@H](CCCNC(=N)N)C(=O)N[C@H](C(=O)NCC(=O)NCC(=O)NCC(=O)NCCCCCCCCCCC(=O)O)CSCC(=O)N[C@@H](Cc2ccc(O)cc2)C(=O)N(C)[C@@H](C)C(=O)N[C@@H](CC(=O)O)C(=O)N2CCC[C@H]2C(=O)N[C@@H](Cc2cnc[nH]2)C(=O)N[C@@H](CC(C)C)C(=O)N2C[C@H](O)C[C@H]2C(=O)N[C@@H](Cc2c[nH]c3ccccc23)C(=O)N[C@@H](CO)C(=O)N[C@@H](Cc2c[nH]c3ccccc23)C(=O)N1C [Example 11070] ({CH2CO}-Y[NMeA]DPHL[Hyp]WSW[NMeNle][NMeNle]RCGGG[Aun]-OH; thioether N-14) | 0.3 to 9.9 nM
CCCC[C@H]1C(=O)N(C)[C@@H](CCCC)C(=O)N[C@@H](CC(C)C)C(=O)N[C@H](C(=O)NCC(=O)N[C@@H](CC(=O)NCCCCC(=O)NCC[C@H](NC(=O)CCCCCCCCCCCCCCCCC(=O)O)C(=O)O)C(=O)O)CSCC(=O)N[C@@H](Cc2ccc(O)cc2)C(=O)N2CCCC[C@H]2C(=O)N[C@@H](CC(N)=O)C(=O)N2CCC[C@H]2C(=O)N[C@@H](CN)C(=O)N[C@@H](CC(C)C)C(=O)N2C[C@H](O)C[C@H]2C(=O)N[C@@H](Cc2c[nH]c3ccccc23)C(=O)N[C@@H](CCN)C(=O)N[C@@H](Cc2cn(CC(=O)O)c3ccccc23)C(=O)N1C [Example 13164] ({CH2CO}-Y[Pip]NP[Dap]L[Hyp]W[Dab][Trp(1-CH2COOH)][NMeNle][NMeNle]LCG[βAsp][Ava]-X9; thioether N-14) | 0.3 to 9.9 nM
CCCCCCCCCCCCCCCC(=O)NCCCC[C@H](NC(=O)CCOCCOCCOCCOCCOCCOCCNC(=O)CNC(=O)C1CSCC(=O)N[C@@H](Cc2ccc(O)cc2)C(=O)N(C)[C@@H](C)C(=O)N[C@@H](CC(=O)O)C(=O)N2CCC[C@H]2C(=O)N[C@@H](Cc2cnc[nH]2)C(=O)N[C@@H](CC(C)C)C(=O)N2C[C@H](O)C[C@H]2C(=O)N[C@@H](Cc2c[nH]c3ccccc23)C(=O)N[C@@H](CO)C(=O)N[C@@H](Cc2c[nH]c3ccccc23)C(=O)N(C)[C@@H](CCCC)C(=O)N(C)[C@@H](CCCC)C(=O)N[C@@H](CCCNC(=N)N)C(=O)N1)C(N)=O (stereo partly shown) [Example 11029] ({CH2CO}-Y[NMeA]DPHL[Hyp]WSW[NMeNle][NMeNle]R[ξC]G[PEG6]K(Palmitoyl)-NH2; thioether N-14) | 100 to 1600 nM
C#CC[C@H](NC(=O)CNC(=O)[C@@H]1CSCC(=O)N[C@@H](Cc2cc(F)c(F)c(F)c2)C(=O)N(C)[C@@H](Cc2ccccc2)C(=O)N(C)[C@@H](CCCC)C(=O)N2C[C@H](O)C[C@@H]2C(=O)N[C@@H](CC(=O)O)C(=O)N[C@@H](C(C)C)C(=O)N(C)[C@@H](Cc2ccccc2)C(=O)N[C@@H](CC(=O)O)C(=O)N2CCC[C@@H]2C(=O)N[C@@H](Cc2c[nH]c3ccccc23)C(=O)N[C@@H](Cc2ccc(O)cc2)C(=O)N[C@@H](CC(C)C)C(=O)N1)C(N)=O [INT 1400L, ClAc-F3Phe-mPhe-mNle-dHyp-Asp-Val-mPhe-Asp-dPro-Trp-Tyr-Leu-Cys-Gly-[(S)-propargylglycine]] ({CH2CO}-[Phe(3,4,5-F3)][NMeF][NMeNle][d(cisHyp)]DV[NMeF]D[dP]WYLCG[Pra]-NH2; thioether N-13) | 10 to 99 nM
CCCC[C@H]1C(=O)N(C)[C@@H](CCCC)C(=O)N[C@@H](CC(C)C)C(=O)N[C@H](C(=O)NCC(=O)N[C@@H](Cc2cn(CC[C@H](NC(=O)CCCCCCCCCCCCCCCCC(=O)O)C(=O)O)nn2)C(=O)O)CSCC(=O)N[C@@H](Cc2ccc(F)cc2)C(=O)N2CCCC[C@H]2C(=O)N[C@@H](CC(=O)O)C(=O)N2CCC[C@H]2C(=O)N[C@@H](CN)C(=O)N[C@@H](CC(C)C)C(=O)N2C[C@H](O)C[C@H]2C(=O)N[C@@H](Cc2c[nH]c3ccccc23)C(=O)N[C@@H](CCN)C(=O)N[C@@H](Cc2cn(CC(=O)O)c3ccccc23)C(=O)N1C [Example 14122] | 10 to 99 nM
CCCC[C@H]1C(=O)N(C)[C@@H](CCCC)C(=O)N[C@@H](CCC(=O)O)C(=O)N[C@H](C(=O)NCC(=O)N[C@@H](Cc2cn(CC[C@H](NC(=O)CCCCCCCCCCCCCCCCC(=O)O)C(=O)O)nn2)C(=O)O)CSCC(=O)N[C@@H](Cc2ccc(O)cc2)C(=O)N(C)[C@@H](C)C(=O)N[C@@H](CC(N)=O)C(=O)N2CCC[C@H]2C(=O)N[C@@H](CN)C(=O)N[C@@H](CC(C)C)C(=O)N2C[C@H](O)C[C@H]2C(=O)N[C@@H](Cc2c[nH]c3ccccc23)C(=O)N[C@@H](CCN)C(=O)N[C@@H](Cc2cn(CC(=O)O)c3ccccc23)C(=O)N1C [Example 13125] | 10 to 99 nM
CCCC[C@H]1C(=O)N(C)[C@@H](CCCC)C(=O)N[C@@H](CC(C)C)C(=O)N[C@H](C(=O)NCC(=O)N[C@@H](CCC(=O)O)C(=O)NCCCOCCOCCOCCCNC(=O)CC[C@H](NC(=O)CCCCCCCCCCCCC(=O)O)C(=O)O)CSCC(=O)N[C@@H](Cc2ccc(O)cc2)C(=O)N(C)[C@@H](C)C(=O)N[C@@H](CC(N)=O)C(=O)N2CCC[C@H]2C(=O)N[C@@H](CN)C(=O)N[C@@H](CC(C)C)C(=O)N2C[C@H](O)C[C@H]2C(=O)N[C@@H](Cc2c[nH]c3ccccc23)C(=O)N[C@@H](CCN)C(=O)N[C@@H](Cc2cn(CC(=O)O)c3ccccc23)C(=O)N1C [Example 11253] ({CH2CO}-Y[NMeA]NP[Dap]L[Hyp]W[Dab][Trp(1-CH2COOH)][NMeNle][NMeNle]LCGE-X11; thioether N-14) | 0.3 to 9.9 nM
CCCC[C@H]1C(=O)N(C)[C@@H](CCCC)C(=O)N[C@@H](CC(C)C)C(=O)N[C@@H](C(=O)N[C@@H](CC(=O)O)C(=O)N[C@@H](CCC(=O)NCCCOCCOCCOCCCNC(=O)C[C@H](NC(=O)CCCCCCCCCCCCCCC(=O)O)C(=O)O)C(=O)O)CSCC(=O)N[C@@H](Cc2ccc(O)cc2)C(=O)N(C)[C@@H](C)C(=O)N[C@@H](CC(N)=O)C(=O)N2CCC[C@@H]2C(=O)N[C@@H](CN)C(=O)N[C@@H](CC(C)C)C(=O)N2C[C@@H](O)CC2C(=O)N[C@@H](Cc2c[nH]c3ccccc23)C(=O)N[C@@H](CCN)C(=O)N[C@@H](Cc2cn(CC(=O)O)c3ccccc23)C(=O)N1C (stereo partly shown) [Example 11245] ({CH2CO}-Y[NMeA]N[dP][Dap]L[X19]W[Dab][Trp(1-CH2COOH)][NMeNle][NMeNle]L[dC]DE(X18)-OH; thioether N-14) | 10 to 99 nM
